Measured values from US20190083420A1, “METHODS OF USING (2R, 6R)-HYDROXYN[…] (2S, 6S)-HYDROXYN[…] THE TREATMENT OF DEPRESSION, ANXIETY, ANHEDONIA, FATIGUE, SUICIDAL IDEATION, AND POST TRAUMATIC STRESS DISORDERS” (The Uinited States of America, as represented by the …, priority 2016, published 2019).
Entries after “also recorded” stand apart in the source; their conditions may differ.

Tests used:
mTOR = assay: Western blot of synaptoneurosomes, mTOR and phosphorylated mTOR; assay type: in vivo, mice
Procedure: (§1) To purify synaptoneurosomes, mouse prefrontal cortex or hippocampus were dissected and homogenized in Syn-PER Reagent (ThermoFisher Scientific, Waltham, Mass., USA; Cat #87793) with 1× protease and phosphatase inhibitor cocktail (ThermoFisher Scientific, Waltham, Mass., USA; Cat #78440). The homogenate was centrifuged for 10 min at 1,200×g at 4° C. The supernatant was centrifuged at 15,000×g for 20 min. After centrifugation, the supernatant the pellet (synaptosomal fraction) was re-suspended and sonicated in N-PER Neuronal Protein Extraction Reagent (ThermoFisher Scientific, Waltham, Mass., USA; Cat #87792). For total homogenous tissue lysates, mouse prefrontal cortex or hippocampus were homogenized and sonicated in N-PER Neuronal Protein Extraction Reagent with 1× protease & phosphatase inhibitor cocktail) Protein concentration was determined via the BCA protein assay kit (ThermoFisher Scientific, Waltham, Mass., USA; Cat #23227).
(§2) For western blotting, equal amount of proteins (10-40 μg as optimal for each antibody) for each sample were loaded into NuPage 4-12% Bis-Tris gel for electrophoresis. Nitrocellulose membranes with transferred proteins were blocked with 5% milk in TBST (TBS+0.1% Tween-20) for 1 hour and kept with primary antibodies overnight at 4° C. The following primary antibodies were used: phospho-eEF2 (Cell Signaling Technology, Danvers, Mass., USA; Cat #2331), total eEF2 (Cell Signaling Technology, Danvers, Mass., USA; Cat #2332), phospho-mTOR (Cell Signaling Technology, Danvers, Mass., USA; Cat #2971), total mTOR (Cell Signaling Technology, Danvers, Mass., USA; Cat #2983), GluR1 (Cell Signaling Technology, Danvers, Mass., USA; […]), GluR2 (Cell Signaling Technology, Danvers, Mass., USA; Cat #13607), BDNF (Santa Cruz Biotechnology, Dallas, Tex., USA; Cat # sc-546), and GAPDH (Abcam, Cambridge, Mass., USA; Cat # ab8245). The next day, blots were washed three times in PBST and incubated with horseradish peroxidase conjugated anti-mouse or anti-rabbit secondary antibody (1:5000 to 1:10000) for 1 hour. After final three washes with TBST, bands were detected using enhanced chemiluminescence (ECL) with the Syngene Imaging System (G:Box ChemiXX9). After imaging, the blots then were incubated in the stripping buffer (ThermoFisher Scientific, Waltham, Mass., USA; Cat #46430) for 10-15 min at room temperature followed by three time washes with TBST. The stripped blots were washed in blocking solution for 1 hour and incubated with the primary antibody directed against total levels of the respective protein or GAPDH for loading control. Densitometric analysis of phospho- and total immunoreactive bands for each protein was conducted using Syngene's GenTools software Immunoreactivity was normalized to the saline treated control group for each protein.

GluR1 and GluR2 = assay: Western blot of synaptoneurosomes, GluR1 and GluR2 levels; assay type: in vivo, mice
Procedure: as §1, §2

BDNF = assay: Western blot of synaptoneurosomes, BDNF levels; assay type: in vivo, mice; settings: for mBDNF levels: hippocampus, 24 hours post-administration, 10 mg/kg; for proBDNF / mBDNF levels: prefrontal cortex
Procedure: as §1, §2

Male C57BL/6J mice = assay: Chronic social defeat stress and social interaction/avoidance test; assay type: in vivo; settings: for locomotor activity and total compartmental crosses in the social interaction test: following chronic social defeat stress; for reversal of social interaction deficits / social avoidance induced by chronic social defeat stress: single i.p. injection, re-test 24 hours following treatment
Procedure: Male C57BL/6J mice underwent a 10-day chronic social defeat stress paradigm. Briefly, experimental mice were introduced to the home cage (43 cm length×11 cm width×20 cm height) of a resident aggressive retired CD-1 breeder, prescreened for aggressive behaviors, for 10 min. Following this physical attack phase, mice were transferred and housed in the opposite side of the resident's cage divided by a Plexiglas perforated divider, in order to maintain continuous sensory contact. This process was repeated for 10 days. Experimental mice were introduced to a novel aggressive CD-1 mouse each day. On day 11, test mice were screened for susceptibility in a social interaction/avoidance choice test. The social interaction apparatus consisted of a rectangular three-chambered box (mouse conditioned-place preference chamber; Stoelting Co., Wood Dale, Ill., USA), see FIG. 7b) comprised of two equal sized end-chambers and a smaller central chamber. The social interaction/avoidance choice test consisted of two 5-min phases. During the habituation phase, mice explored the empty apparatus. During the test phase, two small wire cages (Galaxy Cup, Spectrum Diversified Designs, Inc., Streetsboro, Ohio, USA), one containing a “stranger” CD-1 mouse and the other one empty, were placed in the far corners of each chamber. The time spent interacting (nose within close proximity of the cage) with the “stranger” mouse versus the empty cage was analysed using TopScan video tracking software (CleverSys, Reston, Va.). Locomotor activity (total distance moved over 5 min) and number of total crosses into and out of the central chamber were also measured. The social interaction ratio was calculated by dividing the time spent interacting with the “stranger” by the time spent with the empty cage. Mice having a social interaction ratio higher than 1.0 were considered resilient and mice with a social interaction ratio lower than 1.0 were considered susceptible. On day 13 resilient and susceptible mice received an i.p. injection of either saline, (R,S)-KET (20 mg/kg; chosen based upon dose previously effective in C57BL/6J mice^31), MK-801 (0.1 mg/kg) or (2R,6R)-HNK (20 mg/kg). Mice were re-tested for social interaction/avoidance on […] (24 hours following treatment).

mice = assay: Drug discrimination in ketamine-trained mice; assay type: in vivo; settings: for response rate of overall lever pressing per sec: drug discrimination paradigm
Procedure: Mice were food restricted until they reached 85% of their initial body weight and were maintained at 85% throughout the duration of the experiment Animals were trained to lever press for food (20 mg sucrose pellets; TestDiet, St. Luis, Mo., USA) in standard two lever-operant conditioning chambers (Coulbourn Instruments, Whitehall, Pa., USA), under a fixed-ratio 5 of reinforcement (FR5) in daily 30-min sessions. When stable responding was succeeded over 3 consecutive sessions (average of 40 training sessions), mice were trained to discriminate ketamine (10 mg/kg) from saline (7.5 ml/kg) under a double alternation schedule (e.g., ketamine, ketamine, saline, saline). The subjects received either ketamine (10 mg/kg; i.p.) or saline (7.5 ml/kg) 15 minutes prior to the start of the 30-minute session. […] Drug discrimination test sessions were conducted when mice reached the following criteria: (1) first FR5 completed on the correct lever, and (2)≥85% correct lever responding over the entire session. During the test sessions mice were administered with saline (7.5 ml/kg), ketamine (10 mg/kg), phencyclidine (PCP; 3 mg/kg) or (2R,6R)-HNK (10 and 50 mg/kg). […] Recording of responses and pellet delivery were controlled and calculated by an automated computer system (Graphic State v3.1; Coulbourn Instruments, Whitehall, Pa., USA).

[1] = hippocampus, 1- or 24-hours post-injection, 10 mg/kg

N[C@@]1(c2ccccc2Cl)CCC[C@@H](O)C1=O [(2R,6R)-HNK, (2R,6R)-2-amino-2-(2-chlorophenyl)-6-hydroxycyclohexanone]
mTOR / phosphorylated mTOR synaptoneurosome levels (mTOR; [1]): not observed
mTOR / phosphorylated mTOR synaptoneurosome levels (mTOR; hippocampus, 1- or 24-hours post-injection, 10 mg/kg, listed as (2R,6R)-hydroxynorketamine): did not alter synaptoneurosome levels of mTOR or phosphorylated mTOR
mTOR / phosphorylated mTOR synaptoneurosome levels (mTOR; prefrontal cortex): not observed; also recorded: did not alter
GluR1 and GluR2 levels in hippocampal synaptoneurosomes (GluR1 and GluR2; 1 hour post-treatment): neither ketamine nor (2R,6R)-HNK administration altered
GluR1 and GluR2 levels in hippocampal synaptoneurosomes (GluR1 and GluR2; 24 hours post-treatment): both increased GluR1 and GluR2 levels
GluR1/GluR2 levels in prefrontal cortex synaptoneurosomes (GluR1 and GluR2): did not alter synaptoneurosome levels of GluR1/GluR2
mBDNF levels (BDNF; listed as (2R,6R)-hydroxynorketamine): increased mBDNF levels
proBDNF / mBDNF levels (BDNF): did not alter
locomotor activity and total compartmental crosses in the social interaction test (Male C57BL/6J mice): not associated with changes
reversal of social interaction deficits / social avoidance induced by chronic social defeat stress (Male C57BL/6J mice): reversed social interaction deficits
response rate of overall lever pressing per sec (mice): not changed
ketamine-associated discriminative stimulus (mice; mice trained to discriminate ketamine (10 mg/kg) from saline): did not induce; also recorded: did not produce ketamine-related discrimination responses; also recorded: did not produce discriminative stimulus behaviors

CNC1(c2ccccc2Cl)CCCCC1=O (racemic) [ketamine, (R,S)-ketamine, reference compound]
mTOR / phosphorylated mTOR synaptoneurosome levels (mTOR; [1]): not observed
mTOR / phosphorylated mTOR synaptoneurosome levels (mTOR; hippocampus, 1- or 24-hours post-injection, 10 mg/kg, listed as (R,S)-ketamine): did not alter synaptoneurosome levels of mTOR or phosphorylated mTOR
mTOR / phosphorylated mTOR synaptoneurosome levels (mTOR; prefrontal cortex): not observed
mTOR / phosphorylated mTOR synaptoneurosome levels (mTOR; prefrontal cortex, listed as (R,S)-KET): did not alter
GluR1 and GluR2 levels in hippocampal synaptoneurosomes (GluR1 and GluR2; 1 hour post-treatment): neither ketamine nor (2R,6R)-HNK administration altered
GluR1 and GluR2 levels in hippocampal synaptoneurosomes (GluR1 and GluR2; 24 hours post-treatment): both increased GluR1 and GluR2 levels
GluR1/GluR2 levels in prefrontal cortex synaptoneurosomes (GluR1 and GluR2; listed as (R,S)-KET): did not alter synaptoneurosome levels of GluR1/GluR2
mBDNF levels (BDNF): increased hippocampal BDNF
mBDNF levels (BDNF; listed as (R,S)-ketamine): increased mBDNF levels
proBDNF / mBDNF levels (BDNF): did not alter
locomotor activity and total compartmental crosses in the social interaction test (Male C57BL/6J mice): without affecting
reversal of social interaction deficits / social avoidance induced by chronic social defeat stress (Male C57BL/6J mice): reversed social defeat stress-induced social avoidance behaviors
response rate of overall lever pressing per sec (mice): not changed
